Patent US8455544B2, “Synthetic triterpenoids and methods of use in the treatment of disease” (Reata Pharmaecuticals, Inc., priority 2008, dated 2013)

What was measured:
[1] = test system: IFNγ-induced NO production in RAW264.7 macrophages; assay: Suppression of IFNγ-induced NO production (Griess reagent system); format: cell-based; conditions: Mus musculus; RAW264.7, pre-treated 2 hours, then 20 ng/ml IFNγ for 24 hours
[2] = test system: cisplatin-induced renal toxicity; assay: Rat cisplatin-induced acute renal injury; format: in vivo
Protocol: FIGS. 2a-c—RTA 402 reduces cisplatin-induced renal toxicity. Rats were administered RTA 402 at 10 mg/kg or simply the vehicle (sesame oil) every day by oral gavage beginning on Day −1. On Day 0, the rats received an intravenous injection of cisplatin at 6 mg/kg. Blood samples were drawn on the indicated days and the levels of creatinine (FIG. 2a) and blood urea nitrogen (BUN) (FIG. 2b) were measured as markers of renal damage. A statistically significant difference was observed between the vehicle-treated and RTA 402-treated groups on Day 3 (creatinine) and Day 5 (creatinine and BUN). (FIG. 2c) Less damage to the proximal tubules is observed in RTA 402-treated animals compared to vehicle-treated animals.
In another model of acute renal injury, rats were injected intravenously with the antineoplastic agent cisplatin. In humans, nephrotoxicity is a dose-limiting side effect of treatment with cisplatin. Cisplatin-induced damage to the proximal tubules is thought to be mediated by increased inflammation, oxidative stress, and apoptosis (Yao et al., 2007). Rats treated with a single dose of cisplatin at 6 mg/kg developed renal insufficiency as measured by increased blood levels of creatinine and BUN.

[3] = Serum creatinine in toxicology studies, rats; format: in vivo, Sprague-Dawley rats; conditions: oral, once daily, one month (crystalline) or three months (amorphous form)
Protocol: FIGS. 3a-d—RTA 402 reduces serum creatinine levels in monkeys, dogs, and rats. (FIG. 3a) Cynomolgus monkeys were administered RTA 402 orally at the indicated doses once daily for 28 days. The percent reduction of serum creatinine on Day 28 in RTA 402-treated monkeys relative to vehicle-treated control monkeys is shown. (FIG. 3b) RTA 402 was administered orally to beagle dogs at the indicated doses daily for three months. Control animals received vehicle (sesame oil). The percent change in serum creatinine at the three-month time point relative to baseline is shown. (FIG. 3c) Sprague-Dawley rats were administered RTA 402 orally at the indicated doses once daily for a period of one month. The percent reduction of serum creatinine at study completion in RTA 402-treated rats relative to vehicle-treated control rats is shown. (FIG. 3d) Sprague-Dawley rats were administered the amorphous form of RTA 402 orally at the indicated doses once daily for a period of three months. The percent reduction of serum creatinine at study completion in RTA 402-treated rats relative to vehicle-treated control rats is shown. […] For example, a reading of −15 on this axis indicates a 15% reduction in serum creatinine.
Serum creatinine has been measured in several animal species treated with RTA 402 in the course of toxicology studies. […]

[4] = test system: patients with diabetic nephropathy; assay: Hyperinsulinemic euglycemic clamp test, Phase II study; format: in vivo, human; conditions: after the 28 day treatment
[5] = test system: circulating endothelial cells (CECs); assay: Circulating endothelial cells (CECs) and iNOS-positive CECs, Phase II study; format: in vivo, human
Excerpt: The mean number of CECs in cells/mL is shown for intent-to-treat (ITT) and elevated baseline groups, both before and after the 28 day RTA treatment. The reduction for the Intent-to-treat group was approximately 20%, and the reduction in the elevated baseline group (>5 CECs/ml) was approximately 33%. The fraction of iNOS-positive CECs was reduced approximately 29%.
CECs were isolated from whole blood by using CD146 Ab (an antibody to the CD146 antigen that is expressed on endothelial cells and leukocytes). After CEC isolation, a FITC (fluorescein isothiocyanate) conjugated CD105 Ab (a specific antibody for endothelial cells) is used to identify CECs using the CellSearch™ system. A fluorescent conjugate of CD45 Ab was added to stain the leukocytes, and these were then gated out. For a general overview of this method, see Blann et al., (2005), which is incorporated herein by reference in its entirety. CEC samples were also assessed for the presence of iNOS by immunostaining.

[6] = test system: NQO1 in Hepa1c1c7 murine hepatoma cells; conditions: concentration required to induce a two-fold increase in expression of NQO1, Hepa1c1c7 cells; cited from earlier work
[7] = 10 mg/kg oral gavage daily from one day prior to cisplatin 6 mg/kg i.v.

In the case of `COC(=O)[C@]12CCC(C)(C)C[C@H]1[C@H]1C(=O)C=C3[C@@]4(C)C=C(C#N)C(=O)C(C)(C)[C@@H]4CC[C@@]3(C)[C@]1(C)CC2` [RTA 402, methyl-2-cyano-3,12-dioxooleana-1,9-dien-28-oic acid], the IC50 [1] is reported as 2.2 nM, the “Extent of proximal tubule damage (histological evaluation) compared to vehicle” value ([2]; 10 mg/kg oral gavage daily) is reported as “improvement” and the “Blood levels of BUN” value [2, 7] is reported as “significantly reduced”. For the same compound, the “Blood levels of creatinine” value [2, 7] was “significantly reduced”, the “Serum creatinine levels relative to control animals” value [3] was “Significant reductions” and the “Glucose disposal rate (GDR)” value [4] was “improvements”. The “Glucose disposal rate (GDR)” value ([4]; more severely impaired patients (GDR<4), p≦0.02) was “statistically significant improvements”, the “Reduction of mean number of CECs” value ([5]; 28 days, elevated baseline group (>5 CECs/ml)) was “approximately 33%” and the “Reduction in CECs” value ([5]; 28 days, elevated baseline group, n=14, p=0.02) was 40%. The “Reduction of the fraction of iNOS-positive CECs” value ([5]; 28 days, immunostaining) was “approximately 29%”, the “Reduction of mean number of CECs” value ([5]; 28 days, intent-to-treat group) was “approximately 20%” and the “Reduction in CECs” value ([5]; 28 days, intent-to-treat group, n=20) was 27%. The “Patients with a normal level for CECs post-treatment” value ([5]; of the elevated baseline group, n=14) was “nine”, the “Normalization of CEC values (≦5 cells/mL), patients” value ([5]; patients with elevated baseline) was 11 out of the 19 and the “NQO1 CD” value [6] was 1.0 nM.
